Source: US11291684B2, “Treatment of glaucoma” (TX MEDIC AB, priority 2017, dated 2022)

Columns and labels:
[1] = tested on: trabecular meshwork (TM) scarring; assay: Trabecular meshwork scarring: laminin and fibronectin immunohistochemistry in the angle; assay type: in vivo, Sprague Dawley rats; conditions: rat TGF-β glaucoma model, day 28, vs saline
Source text: Measured End-Points • IOP twice weekly throughout study from day 0 to day 28; • Immunohistochemistry for counting RGC that are immunoreactive for brain-specific homeobox/POU domain protein 3A (Brn3a) at day 28 (RGC survival); • Immunohistochemistry for laminin and fibronectin to evaluate scarring in the trabecular meshwork at day 28 in Groups 1 and 2; • Anterior segment and OCT imaging at day 28 to examine the angle and the thickness of the retinal nerve fiber layer comprising RGC axons; and • Body weight at day 28. […]
After immunofluorescence staining, sections were viewed on a Zeiss Axioplan 2 epi-fluorescent microscope (Carl Zeiss Ltd) and images captured using the same exposure times for each antibody using a Zeiss AxioCam HRc. IHC was quantified according to the methods previously described. Briefly, the region of interest used for quantitation of TM fibrosis was defined by a quadrant of the same prescribed size for all eyes/treatments within the TM, and ECM deposition was quantified within this defined quadrant of the TM and the % immunofluorescent pixels above a standardized background threshold calculated using ImageJ software (National Institutes of Health, USA). […] Images were assigned randomized numbers to ensure blinding of treatment groups during quantification by the assessor.

[2] = tested on: glaucomatous eyes; assay: Intraocular pressure in TGF-β-induced glaucoma model (rebound tonometer); assay type: in vivo, Sprague Dawley rats; conditions: rat, 15 mg/kg daily s.c. from day 14
Source text: Raised IOP was induced by twice weekly intracameral injections of the inflammatory cytokine TGF-β over the entire time period of 28 days. This induced scarring of the trabecular meshwork (TM) drainage portals by day 14 with associated raised IOP. Daily subcutaneous dextran sulfate/saline treatments commenced at day 14.
Glaucoma was induced in adult male Sprague Dawley rats by repeat twice weekly intracameral (IC) injections of transforming growth factor-β (TGF-β) to increase intraocular pressure (IOP). Sustained increases in IOP (after two weeks) leads to death of retinal ganglion cells (30-40%). Dextran sulfate (Tikomed AB, Sweden, WO 2016/076780) was administered at 15 mg/kg by daily subcutaneous injection from […] to assess RGC protection compared to controls.
Group 1 n=12 rats; 24 eyes IOP+IC TGF-β (twice weekly for 28 days) between day 0 and day 28+ daily subcutaneous administration of dextran sulfate from day 14 to day 28.
Sixteen 8 to 10 week-old male 175-200 g Sprague Dawley rats (Charles River, Kent, UK), housed with free access to food and water under a 12 h dark/light cycle, were used for these experiments. Surgery was performed at the Biomedical Services Unit at the University of Birmingham in accordance with the Home Office guidelines set out in the 1986 Animal Act (UK) and the ARVO Statement for the Use of Animals in Ophthalmic and Vision Research. […] The post-operative welfare of all rats was monitored closely. […]
Using an iCare Tonolab rebound tonometer (Icare, Helsinki, Finland), IOP was recorded bi-weekly between 9-11 am for the duration of each experiment to avoid confounding the readings with circadian variability. Immediately after induction of anesthesia with 5% isoflurane, six rebound measurements were taken with the tonometer from the central cornea on each measurement occasion to give an overall average IOP measurement (mmHg) and all graphical data points represent the mean±SEM of 3 readings (of 6 rebounds each) taken sequentially to ensure accurate measurements.

Substance: dextran sulfate
- levels of immunoreactive laminin in the angle ([1]; P<0.001): significantly reduced
- levels of immunoreactive fibronectin in the angle ([1]; P<0.01): significantly reduced
- IOP compared to controls ([2]; IC TGF-β twice weekly, day 24, vs saline): significantly lower (P<0.001) and normalized
- IOP compared to control group ([2]; IC TGF-β twice weekly, day 28 (end of experiment), vs saline): remained significantly lower
- time of treatment after which elevated IOP started to reduce ([2]; IC TGF-β): 7 days
